Numbers after ± are expanded uncertainties.
Conditions: 101 kPa, Liquid, Drop weight

| SMILES | interfacial tension (289.15 K) | interfacial tension (303.15 K) | interfacial tension (313.15 K) | interfacial tension (323.15 K) | interfacial tension (333.15 K) | interfacial tension (292.15 K) | interfacial tension (283.15 K) | interfacial tension (290.15 K) | interfacial tension (293.15 K) |
| --- | --- | --- | --- | --- | --- | --- | --- | --- | --- |
| CCC(C)=O [butanone] + O | – | – | – | – | – | 0.92 ± 1 mN/m | – | – | – |
| CCCCOC(C)=O [butyl ethanoate] + O | 14.9 ± 1 mN/m | 15.2 ± 1 mN/m | 15.1 ± 1 mN/m | 14.3 ± 1 mN/m | – | – | 15.3 ± 1 mN/m | 14.95 ± 1 mN/m | 15.3 ± 1 mN/m |
| CCOCC [diethyl ether] + O | – | – | – | – | – | – | – | – | 9.03 ± 1 mN/m |
| CCOC(C)=O [ethyl acetate] + O | 7.37 ± 1 mN/m | 7.19 ± 1 mN/m | 7.15 ± 1 mN/m | 6.99 ± 1 mN/m | – | – | 7.61 ± 1 mN/m | – | 7.29 ± 1 mN/m |
| CC1CCCCC1 [methylcyclohexane] + O | – | – | – | – | – | – | – | – | 51.4 ± 1.1 mN/m |
| CCCCCCCCO [octan-1-ol] + O | 9.1 ± 1 mN/m | – | – | – | – | – | – | – | – |
| Cc1ccccc1 [toluene] + O | – | 36 ± 1.1 mN/m | 35.3 ± 1.1 mN/m | 34 ± 1 mN/m | – | – | 36.1 ± 1.1 mN/m | 35.8 ± 1.1 mN/m | 36.3 ± 1.1 mN/m |

Second part, led by results:

| interfacial tension (289.15 K) | interfacial tension (303.15 K) | interfacial tension (313.15 K) | interfacial tension (323.15 K) | interfacial tension (333.15 K) | SMILES | interfacial tension (292.15 K) | interfacial tension (283.15 K) | interfacial tension (290.15 K) | interfacial tension (293.15 K) |
| --- | --- | --- | --- | --- | --- | --- | --- | --- | --- |
| – | 4.17 ± 1 mN/m | 4.15 ± 1 mN/m | 3.97 ± 1 mN/m | 3.95 ± 1 mN/m | OC1CCCCC1 [cyclohexanol] + O | – | – | – | – |
| 4.43 ± 1 mN/m | 5.08 ± 1 mN/m | 5.05 ± 1 mN/m | 4.71 ± 1 mN/m | – | O=C1CCCCC1 [cyclohexanone] + O | – | 4.78 ± 1 mN/m | – | 4.87 ± 1 mN/m |

Source: the NIST ThermoML archive (doi:10.1021/acs.jced.6b00703)
